pIC50: −log10 of the molar value.
Columns and labels:
[1] = test system: wildtype A2780 ovarian cancer cells; experiment: CellTiter Glo proliferation inhibition, wild-type A2780 cells; type: cell-based; conditions: for pIC50 / inhibition at 60 pM / inhibition at 0.00017 µM / inhibition at 0.00051 µM / inhibition at 0.00152 µM / inhibition at 0.00457 µM / inhibition at 0.01372 µM / inhibition at 0.04115 µM / inhibition at 0.12346 µM / inhibition at 0.37037 µM / inhibition at 10 µM / inhibition at 30 µM: Homo sapiens; for pIC50: A2780; for inhibition at 60 pM / inhibition at 0.00017 µM / inhibition at 0.00051 µM / inhibition at 0.00152 µM / inhibition at 0.00457 µM / inhibition at 0.01372 µM / inhibition at 0.04115 µM / inhibition at 0.12346 µM / inhibition at 0.37037 µM / inhibition at 10 µM / inhibition at 30 µM / Mean Inhibition (n = 3): wildtype A2780; for inhibition at 60 pM: test conc. 0.06 nM; for inhibition at 60 pM / inhibition at 0.00017 µM / inhibition at 0.00051 µM / inhibition at 0.00152 µM / inhibition at 0.00457 µM / inhibition at 0.01372 µM / inhibition at 0.04115 µM / inhibition at 0.12346 µM / inhibition at 0.37037 µM / inhibition at 10 µM / inhibition at 30 µM: read-out: Mean Inhibition (n = 3); for inhibition at 0.00017 µM: test conc. 0.17 nM; for inhibition at 0.00051 µM: test conc. 0.51 nM; for inhibition at 0.00152 µM: test conc. 1.52 nM; for inhibition at 0.00457 µM: test conc. 4.57 nM; for inhibition at 0.01372 µM: test conc. 13.72 nM; for inhibition at 0.04115 µM: test conc. 41.15 nM; for inhibition at 0.12346 µM: test conc. 123.46 nM; for inhibition at 0.37037 µM: test conc. 370.37 nM; for inhibition at 10 µM: test conc. 10,000 nM; for inhibition at 30 µM: test conc. 30,000 nM; for Maximum inhibition observed in wild-type A2780 cells: concentration range 0.06 nM to 30,000 nM
Protocol: The A2780 cell line is an ovarian cancer cell line that was established from an ovarian endometroid adenocarcinoma tumour. […] It is commonly used as a model to observe the effects of, and test the potency of various chemicals, methods of delivery and treatments for ovarian cancer. […] The cells were diluted with culture medium and 40 μL of cell suspension (1000 cells/well) was added into each well of a 384-well cell culture plate. The plate was covered with a lid and left at room temperature without shaking for 30 minutes. The plate was then transferred to an incubator at 37° C. and 5% CO2 and left overnight. Test compounds were dissolved at a concentration of 30 mM in DMSO to create a stock solution. 45 μL of the stock solution was transferred to a 384 pp-plate. […] The plate was then spun at room temperature at 1,000 RPM for 1 minute. 40 nL of the diluted compound was then transferred from the compound source plate into the cell plate. The cell plate was then covered with a lid and placed in an incubator at 37° C. and 5% CO2 and left for 120 hours. 72 hours after treatment with the compound detection was conducted as discussed below. CellTiter Glo® reagents were thawed and equilibrated to room temperature. The cell plate was then removed from the incubator and equilibrated at room temperature for 15 minutes. 30 μL of the CellTiter Glo® reagents were then added into each well (at 1:1 to culture medium). The contents was mixed for 2 minutes on an orbital shaker to induce cell lysis and then the plates were allowed to incubate at room temperature for 30 minutes. Luminescence was then measured on an Envision reader (Perkin Elmer). The inhibition activity was calculated using the following formula: […]

[2] = test system: olaparib resistant A2780 ovarian cancer cells; experiment: CellTiter Glo proliferation inhibition, olaparib resistant A2780 cells, single agents; type: cell-based; conditions: for pIC50 / inhibition at 60 pM / inhibition at 0.00017 µM / inhibition at 0.00051 µM / inhibition at 0.00152 µM / inhibition at 0.00457 µM / inhibition at 0.01372 µM / inhibition at 0.04115 µM / inhibition at 0.12346 µM / inhibition at 0.37037 µM / inhibition at 10 µM / inhibition at 30 µM: Homo sapiens; for pIC50: A2780; for inhibition at 60 pM / inhibition at 0.00017 µM / inhibition at 0.00051 µM / inhibition at 0.00152 µM / inhibition at 0.00457 µM / inhibition at 0.01372 µM / inhibition at 0.04115 µM / inhibition at 0.12346 µM / inhibition at 0.37037 µM / inhibition at 10 µM / inhibition at 30 µM / Mean Inhibition (n = 3): olaparib resistant A2780; for inhibition at 60 pM: test conc. 0.06 nM; for inhibition at 60 pM / inhibition at 0.00017 µM / inhibition at 0.00051 µM / inhibition at 0.00152 µM / inhibition at 0.00457 µM / inhibition at 0.01372 µM / inhibition at 0.04115 µM / inhibition at 0.12346 µM / inhibition at 0.37037 µM / inhibition at 10 µM / inhibition at 30 µM: read-out: Mean Inhibition (n = 3); for inhibition at 0.00017 µM: test conc. 0.17 nM; for inhibition at 0.00051 µM: test conc. 0.51 nM; for inhibition at 0.00152 µM: test conc. 1.52 nM; for inhibition at 0.00457 µM: test conc. 4.57 nM; for inhibition at 0.01372 µM: test conc. 13.72 nM; for inhibition at 0.04115 µM: test conc. 41.15 nM; for inhibition at 0.12346 µM: test conc. 123.46 nM; for inhibition at 0.37037 µM: test conc. 370.37 nM; for inhibition at 10 µM: test conc. 10,000 nM; for inhibition at 30 µM: test conc. 30,000 nM; for Maximum inhibition observed in olaparib resistant A2780 cells: concentration range 0.06 nM to 30,000 nM; for Resistance of the olaparib resistant cells to other PARPis: olaparib resistant A2780 cells
Protocol: A2780 ovarian cancer cells (wild-type “WT”) were cultured in RPMI 1640 Medium with 10% Fetal Bovine Serum (FBS).
To obtain cells resistant to olaparib, the cells were cultured in cell culture medium (RPMI 1640 Medium with 10% FBS) supplemented with 20 μM olaparib for one month in order to generate A2780 cells resistant to olaparib (“R”). After a month the cells were continuously cultured in the cell culture medium (RPMI 1640 Medium with 10% FBS) supplemented with 10 μM olaparib prior to use and for up to two months to maintain the resistance.
The cells were harvested from a flask into cell culture medium (RPMI 1640 Medium with 10% FBS) and then counted. The cells were diluted with culture medium and 40 μL of cell suspension (1000 cells/well) was added into each well of a 384-well cell culture plate. The plate was covered with a lid and left at room temperature without shaking for 30 minutes. The plate was then transferred to an incubator at 37° C. and 5% CO2 and left overnight.
Test compounds were dissolved at a concentration of 30 mM in DMSO to create a stock solution. 45 μL of the stock solution was transferred to a 384 pp-plate. […] The plate was then spun at room temperature at 1,000 RPM for 1 minute. 40 nL of the diluted compound was then transferred from the compound source plate into the cell plate. The cell plate was then covered with a lid and placed in an incubator at 37° C. and 5% CO2 and left for 120 hours. 72 hours after treatment with the compound detection was conducted as discussed below.
CellTiter Glo® reagents were thawed and equilibrated to room temperature. The cell plate was then removed from the incubator and equilibrated at room temperature for 15 minutes. 30 μL of the CellTiter Glo® reagents were then added into each well (at 1:1 to culture medium). The contents was mixed for 2 minutes on an orbital shaker to induce cell lysis and then the plates were allowed to incubate at room temperature for 30 minutes. Luminescence was then measured on an Envision reader (Perkin Elmer).
The inhibition activity was calculated using the following formula:
Inhibition (%)=100×(Lumvehicle−Lumsample)/(Lumvehicle−Lumblank),
where Lumvehicle is the luminescence of cells treated with 0.1% DMSO and Lumblank is cells in the culture medium.
The IC50 was calculated by fitting the curve using Xlfit (v5.3.1.3), equation 201: […]

SMILES: NC(=O)c1cccc2cn(-c3ccc([C@@H]4CCCNC4)cc3)nc12 [Niraparib, niraparib]
- pIC50 [1]: 5.68
- inhibition at 60 pM [1]: 0.39%
- inhibition at 0.00017 µM [1]: -3.72%
- inhibition at 0.00051 µM [1]: -0.34%
- inhibition at 0.00152 µM [1]: 0.03%
- inhibition at 0.00457 µM [1]: 0.18%
- inhibition at 0.01372 µM [1]: 0.97%
- inhibition at 0.04115 µM [1]: -0.46%
- inhibition at 0.12346 µM [1]: 3.18%
- inhibition at 0.37037 µM [1]: 12.3%
- inhibition at 10 µM [1]: 66.2%
- inhibition at 30 µM [1]: 73.3%
- Maximum inhibition observed in wild-type A2780 cells [1]: 75%
- Mean Inhibition (n = 3) ([1]; test conc. 1,111.11 nM): 25.03%
- Mean Inhibition (n = 3) ([1]; test conc. 3,333.33 nM): 48.63%
- pIC50 [2]: 4.76
- inhibition at 60 pM [2]: -1.98%
- inhibition at 0.00017 µM [2]: 0.32%
- inhibition at 0.00051 µM [2]: -2.36%
- inhibition at 0.00152 µM [2]: 2.95%
- inhibition at 0.00457 µM [2]: -0.19%
- inhibition at 0.01372 µM [2]: -1.43%
- inhibition at 0.04115 µM [2]: 0.1%
- inhibition at 0.12346 µM [2]: -0.8%
- inhibition at 0.37037 µM [2]: -0.56%
- inhibition at 10 µM [2]: 18.9%
- inhibition at 30 µM [2]: 43.9%
- Maximum inhibition observed in olaparib resistant A2780 cells [2]: 47%
- Mean Inhibition (n = 3) ([2]; test conc. 1,111.11 nM): −1.37%
- Mean Inhibition (n = 3) ([2]; test conc. 3,333.33 nM): 5.54%
- Resistance of the olaparib resistant cells to other PARPis [2]: resistant

SMILES: Cn1ncnc1[C@H]1c2n[nH]c(=O)c3cc(F)cc(c23)N[C@@H]1c1ccc(F)cc1 [Talazoparib, talazoparib]
- pIC50 [1]: 7.72
- inhibition at 60 pM [1]: 0.69%
- inhibition at 0.00017 µM [1]: -0.65%
- inhibition at 0.00051 µM [1]: 2.86%
- inhibition at 0.00152 µM [1]: 6.64%
- inhibition at 0.00457 µM [1]: 23.4%
- inhibition at 0.01372 µM [1]: 35.8%
- inhibition at 0.04115 µM [1]: 46.3%
- inhibition at 0.12346 µM [1]: 56.3%
- inhibition at 0.37037 µM [1]: 64.5%
- inhibition at 10 µM [1]: 77.6%
- inhibition at 30 µM [1]: 78.9%
- Maximum inhibition observed in wild-type A2780 cells [1]: 80%
- Mean Inhibition (n = 3) ([1]; test conc. 1,111.11 nM): 71.38%
- Mean Inhibition (n = 3) ([1]; test conc. 3,333.33 nM): 76.54%
- pIC50 [2]: 5.37
- inhibition at 60 pM [2]: 5.28%
- inhibition at 0.00017 µM [2]: -0.08%
- inhibition at 0.00051 µM [2]: 6.18%
- inhibition at 0.00152 µM [2]: 2.33%
- inhibition at 0.00457 µM [2]: 3.63%
- inhibition at 0.01372 µM [2]: 4.9%
- inhibition at 0.04115 µM [2]: -1.18%
- inhibition at 0.12346 µM [2]: 2.95%
- inhibition at 0.37037 µM [2]: 9.21%
- inhibition at 10 µM [2]: 49%
- inhibition at 30 µM [2]: 64.3%
- Maximum inhibition observed in olaparib resistant A2780 cells [2]: 66%
- Mean Inhibition (n = 3) ([2]; test conc. 1,111.11 nM): 15.45%
- Mean Inhibition (n = 3) ([2]; test conc. 3,333.33 nM): 34.89%
- Resistance of the olaparib resistant cells to other PARPis [2]: resistant

Source: US20220000911A1, “COMBINATION OF GOLD COMPLEXES WITH OLAPARIB OR OTHER PARP1/2 INHIBITORS FOR USE IN THE TREATMENT OF CANCER RESISTANT TO SAID PARP1/2 INHIBITORS” (Varsity Pharmaceuticals Limited, priority 2020, published 2022)
